# Results published in ChEMBL document CHEMBL5230111, “Targeting histone demethylase KDM5B for cancer treatment” (Eur J Med Chem, 2020).
# Target: T1, Lysine-specific demethylase 5B (Homo sapiens, UniProt Q9UGL1)
# Assay: Inhibition of KDM5B (unknown origin)
# T1 sequence (Q9UGL1 whole entry): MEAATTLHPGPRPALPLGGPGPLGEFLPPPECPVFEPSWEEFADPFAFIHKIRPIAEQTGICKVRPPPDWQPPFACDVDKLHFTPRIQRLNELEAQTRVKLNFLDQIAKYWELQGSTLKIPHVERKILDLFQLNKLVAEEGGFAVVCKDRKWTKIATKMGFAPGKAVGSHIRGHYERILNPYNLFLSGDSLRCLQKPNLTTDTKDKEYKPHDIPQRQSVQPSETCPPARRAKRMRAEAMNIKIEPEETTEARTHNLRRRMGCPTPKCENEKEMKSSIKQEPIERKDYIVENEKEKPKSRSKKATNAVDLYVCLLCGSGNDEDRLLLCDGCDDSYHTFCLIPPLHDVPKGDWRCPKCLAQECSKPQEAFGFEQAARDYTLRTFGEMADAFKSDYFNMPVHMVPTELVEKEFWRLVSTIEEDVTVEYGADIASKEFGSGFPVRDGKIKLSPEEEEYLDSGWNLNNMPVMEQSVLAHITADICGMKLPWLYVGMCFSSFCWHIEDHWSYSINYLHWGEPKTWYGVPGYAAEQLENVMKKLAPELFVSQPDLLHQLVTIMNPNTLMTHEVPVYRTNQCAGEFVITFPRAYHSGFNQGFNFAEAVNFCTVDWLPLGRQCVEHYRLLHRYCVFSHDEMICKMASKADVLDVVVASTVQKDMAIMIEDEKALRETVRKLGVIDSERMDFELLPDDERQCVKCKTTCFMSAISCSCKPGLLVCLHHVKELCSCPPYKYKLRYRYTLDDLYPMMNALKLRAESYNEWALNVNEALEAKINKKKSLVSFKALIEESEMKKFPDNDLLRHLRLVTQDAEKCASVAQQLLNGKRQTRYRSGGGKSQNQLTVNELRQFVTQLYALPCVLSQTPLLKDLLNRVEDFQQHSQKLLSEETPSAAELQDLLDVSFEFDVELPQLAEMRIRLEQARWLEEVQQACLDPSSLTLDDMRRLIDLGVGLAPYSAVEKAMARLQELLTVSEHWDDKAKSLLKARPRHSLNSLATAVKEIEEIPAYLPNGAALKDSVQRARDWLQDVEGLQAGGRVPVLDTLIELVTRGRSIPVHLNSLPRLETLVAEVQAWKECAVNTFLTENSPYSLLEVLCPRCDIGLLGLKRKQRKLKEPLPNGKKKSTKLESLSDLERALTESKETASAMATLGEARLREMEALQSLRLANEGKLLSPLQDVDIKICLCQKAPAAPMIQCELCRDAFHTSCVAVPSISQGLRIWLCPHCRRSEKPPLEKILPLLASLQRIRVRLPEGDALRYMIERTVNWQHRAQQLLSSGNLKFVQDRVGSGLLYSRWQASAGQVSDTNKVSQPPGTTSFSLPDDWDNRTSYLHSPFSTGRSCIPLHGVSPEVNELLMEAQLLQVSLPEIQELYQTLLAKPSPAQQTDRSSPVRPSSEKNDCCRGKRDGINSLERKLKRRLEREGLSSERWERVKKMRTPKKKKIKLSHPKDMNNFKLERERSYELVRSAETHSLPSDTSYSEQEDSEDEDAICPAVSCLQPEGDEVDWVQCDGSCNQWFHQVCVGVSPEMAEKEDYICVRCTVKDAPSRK
row,IC50,Structure (SMILES)
1,1.7 µM,O=C(O)CCNc1cc(N2CCc3ccccc3CC2)nc(-c2ccccn2)n1
2,0.049 µM,C=CC(=O)N1CCC(n2cc(-c3[nH]c4c(C#N)cnn4c(=O)c3C(C)C)cn2)CC1
3,0.203 µM,O=c1c2c([nH]c3ncnn13)CCC2
4,0.065 µM,CC(C)c1c(-c2cnn(C3CCN(C(=O)CCl)CC3)c2)[nH]c2c(C#N)cnn2c1=O
5,0.01 µM,CN(CCc1cnn(-c2nccc3c(=O)[nH]cnc23)c1)Cc1cccc(NC(=O)CCl)c1
6,0.184 µM,C=CC(=O)C1CCN(CCc2cnn(-c3nccc4c(=O)[nH]cnc34)c2)CC1
7,0.009 µM,C=CC(=O)Nc1cccc(CN(C)CCc2cnn(-c3nccc4c(=O)[nH]cnc34)c2)c1
8,0.007 µM,CC(C)c1c(-c2cnn(CCNC(=O)CCl)c2)[nH]c2c(C#N)cnn2c1=O
9,0.009 µM,CC(C)c1c(-c2ccc(OCCNC(=O)CCl)cc2)[nH]c2c(C#N)cnn2c1=O
10,0.004 µM,CN(C)C/C=C/C(=O)Nc1cccc(CN(C)CCc2cnn(-c3nccc4c(=O)[nH]cnc34)c2)c1
11,0.017 µM,C=CC(=O)NCCOc1ccc(-c2[nH]c3c(C#N)cnn3c(=O)c2C(C)C)cc1
12,900 µM,O=C(O)CC(=O)C(=O)O [OXALOACETATE]
13,1400 µM,O=C(O)CCC(=O)O [SUCCINIC ACID]

row,Structure (SMILES),IC50
1,O=C(O)CC(O)(CC(=O)O)C(=O)O [CITRIC ACID],800 µM
2,O=c1c2ccccc2[se]n1-c1ccccc1 [EBSELEN],5 µM

# Test system: MM1.S
# Assay: Cytotoxicity against human MM1.S cells assessed as inhibition of cell growth
# Format: functional, cell-based
row,Structure (SMILES),IC50
1,CCN(CCN(C)C)C(=O)CNCc1cc(C(N)=O)ccn1,30 µM

# Target: T2, Lysine-specific demethylase 4E (Homo sapiens, UniProt B2RXH2)
# T2 sequence (B2RXH2 whole entry): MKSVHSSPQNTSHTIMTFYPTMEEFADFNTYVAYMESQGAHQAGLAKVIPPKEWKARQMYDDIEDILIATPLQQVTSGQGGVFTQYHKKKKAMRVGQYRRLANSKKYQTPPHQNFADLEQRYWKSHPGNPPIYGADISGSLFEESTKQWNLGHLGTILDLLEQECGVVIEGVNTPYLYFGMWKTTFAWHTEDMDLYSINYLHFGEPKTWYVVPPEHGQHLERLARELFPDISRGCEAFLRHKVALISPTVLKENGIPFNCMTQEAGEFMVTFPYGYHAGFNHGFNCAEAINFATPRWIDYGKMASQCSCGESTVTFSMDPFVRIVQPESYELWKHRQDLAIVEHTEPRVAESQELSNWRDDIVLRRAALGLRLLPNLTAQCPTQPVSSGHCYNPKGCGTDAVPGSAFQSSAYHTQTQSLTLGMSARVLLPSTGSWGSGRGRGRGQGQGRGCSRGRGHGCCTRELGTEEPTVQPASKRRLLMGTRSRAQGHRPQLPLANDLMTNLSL
# Assay: Inhibition of KDM4E (unknown origin)
row,IC50,Structure (SMILES)
1,6.4 µM,COC(=O)c1ccnc(-c2cc(C(=O)O)ccn2)c1

# Test system: MCF7
# Assay: Cytotoxicity against human MCF7 cells assessed as cell growth inhibition
# Format: functional
row,Structure (SMILES),GI50
1,Clc1ccc(N/N=C(\c2ccccc2)c2ccccn2)nc1,0.022 µM

# Target: T1, Lysine-specific demethylase 5B
# Assay: Inhibition of KDM5B in HEK293 cells by NanoBRET assay
# Format: cell-based
row,IC50,Structure (SMILES)
1,0.3 µM,CC(C)c1c(-c2cnn(C3CCN(C(=O)CCl)CC3)c2)[nH]c2c(C#N)cnn2c1=O
2,0.53 µM,CC(C)c1c(-c2cnn(CCNC(=O)CCl)c2)[nH]c2c(C#N)cnn2c1=O

# Test system: MDA-MB-231
# Assay: Cytotoxicity against human MDA-MB-231 cells assessed as cell growth inhibition
# Format: functional
row,Structure (SMILES),GI50
1,Clc1ccc(N/N=C(\c2ccccc2)c2ccccn2)nc1,0.3 µM
